# Test results published in US20260092057A1, “BCL-XL/BCL-2 DEGRADERS AND USES THEREOF” (Kymera Therapeutics, Inc., priority 2022, published 2026).
# Assays:
# Format in all cases: cell-based
# [1] = tested on: MOLT-4 cells; assay: CTG (CellTiter-Glo) cell viability assay, MOLT-4; conditions: Homo sapiens, MOLT-4, 72 h, MOLT-4, 3 day; read-out: CTG Cell Viability Assay - MOLT-4 3 day: Average external-IC50
# Procedure, shortened: (§1)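 Viability read by CellTiter-Glo luminescence after 3 days' compound exposure at 37 °C under 5% CO2, with 10,000 cells per well. Dosing was nine 1:3 dilutions starting at 10 µM, DMSO normalized to 0.2%; IC50 values come from three-parameter logistic curve fitting.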
# [2] = tested on: Caki-2 cells; assay: CTG (CellTiter-Glo) cell viability assay, Caki-2; conditions: Homo sapiens, CAKI-2, 72 h, Caki-2, 3-day; read-out: CTG Chempartner/PHA- Caki-2 3-day: Average external-IC50
# Procedure, shortened: as §1
# [3] = target: T1, BCL-XL (Homo sapiens, UniProt Q07817); assay: BCL-XL degradation assay in MOLT-4 cells (ELISA, 6 h); conditions: for DC50: read-out: Bcl-xL ELISA in MOLT-4 degradation 6 h: External Abs-DC50
# T1 construct: BCL-XL degradation results in MOLT-4 cells for compounds of the invention; endogenous in cells; host or cells: MOLT-4
# T1 sequence (Q07817 whole entry): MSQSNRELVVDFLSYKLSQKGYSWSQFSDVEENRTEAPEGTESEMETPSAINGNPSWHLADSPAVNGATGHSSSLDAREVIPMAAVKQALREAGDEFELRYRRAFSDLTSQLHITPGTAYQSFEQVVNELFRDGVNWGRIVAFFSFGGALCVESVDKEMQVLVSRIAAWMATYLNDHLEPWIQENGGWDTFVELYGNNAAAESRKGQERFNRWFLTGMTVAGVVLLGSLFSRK
SMILES,IC50 [1] [nM],IC50 [2] [nM],Dmax [3] [%],DC50 [3] [nM]
"Cc1ncsc1-c1ccc([C@H](C)NC(=O)[C@@H]2C[C@@H](O)CN2C(=O)[C@@H](NC(=O)CCCCCC(=O)N2CCN(c3ccc(-c4ccc(Cl)cc4)c([C@H](O)C4CCN(c5ccc(C(=O)NS(=O)(=O)c6ccc(N[C@H](CCN(C)CCO)CSc7ccccc7)c(S(=O)(=O)C(F)(F)F)c6)cc5)CC4)c3)CC2)C(C)(C)C)cc1 (single isomer, unassigned) [I-113]",100 to 1000,> 30000,> 75,< 10
Cc1ncsc1-c1ccc([C@H](C)NC(=O)[C@@H]2C[C@@H](O)CN2C(=O)[C@@H](NC(=O)CCCCC(=O)N2CCN(CCCNc3ccc(S(=O)(=O)NC(=O)c4ccc(N5CCN(CC6=C(c7ccc(Cl)cc7)CC(C)(C)CC6)CC5)cc4Oc4cnc5[nH]ccc5c4)cc3S(=O)(=O)C(F)(F)F)CC2)C(C)(C)C)cc1 [I-63],1000 to 3000,> 30000,50 to 75,100 to 500
Cc1ncsc1-c1ccc([C@H](C)NC(=O)[C@@H]2C[C@@H](O)CN2C(=O)[C@@H](NC(=O)CCCCCC(=O)N2CCN(CCCNc3ccc(S(=O)(=O)NC(=O)c4ccc(N5CCN(CC6=C(c7ccc(Cl)cc7)CC(C)(C)CC6)CC5Oc5cnc6[nH]ccc6c5)cc4)cc3S(=O)(=O)C(F)(F)F)CC2)C(C)(C)C)cc1 (stereo partly shown) [I-133],100 to 1000,> 30000,< 50,500 to 1000
C#Cc1ccc([C@H](C)NC(=O)[C@@H]2C[C@@H](O)CN2C(=O)[C@@H](NC(=O)CCCCCC(=O)N2CCN(CCCNc3ccc(S(=O)(=O)NC(=O)c4ccc(N5CCN(CC6=C(c7ccc(Cl)cc7)CC(C)(C)CC6)CC5)cc4Oc4cnc5[nH]ccc5c4)cc3S(=O)(=O)C(F)(F)F)CC2)C(C)(C)C)cc1 [I-85],100 to 1000,> 30000,< 50,500 to 1000
"Cc1ncsc1-c1ccc([C@H](C)NC(=O)[C@@H]2C[C@@H](O)CN2C(=O)[C@@H](NC(=O)CCCCCC(=O)N2CCN(CCCNc3ccc(S(=O)(=O)NC(=O)c4ccc(N5CCC([C@H](O)c6ccccc6-c6ccc(Cl)cc6)CC5)cc4Oc4cnc5[nH]ccc5c4)cc3S(=O)(=O)C(F)(F)F)CC2)C(C)(C)C)cc1 (single isomer, unassigned) [I-38]",100 to 1000,> 30000,50 to 75,100 to 500
Cc1ncsc1-c1ccc([C@H](C)NC(=O)[C@@H]2C[C@@H](O)CN2C(=O)[C@@H](NC(=O)CCCCCN(C)CCCNc2ccc(S(=O)(=O)NC(=O)c3ccc(N4CCN(CC5=C(c6ccc(Cl)cc6)CC(C)(C)CC5)CC4)cc3Oc3cnc4[nH]ccc4c3)cc2S(=O)(=O)C(F)(F)F)C(C)(C)C)cc1 [I-69],> 3000,> 30000,< 50,500 to 1000
Cc1ncsc1-c1ccc([C@H](C)NC(=O)[C@@H]2C[C@@H](O)CN2C(=O)[C@@H](NC(=O)CCCCCC(=O)N2CCCN(CCCNc3ccc(S(=O)(=O)NC(=O)c4ccc(N5CCN(CC6=C(c7ccc(Cl)cc7)CC(C)(C)CC6)CC5)cc4Oc4cnc5[nH]ccc5c4)cc3S(=O)(=O)C(F)(F)F)CC2)C(C)(C)C)cc1 [I-106],< 100,> 30000,50 to 75,10 to 100
